Assay results reported in patent US20250042857A1, “SOS1 Inhibitor With Pyrido-Fused Six-Membered Ring Structure” (HAIHE BIOPHARMA CO., LTD., priority 2021, published 2025).
Like-named read-outs stand apart in the source and are kept apart here.

Key:
[1] = target: KRAS-G12C/SOS1 (Homo sapiens (Human), UniProt Q07889); assay: Detection of inhibitory effects of compounds on KRAS-G12C/SOS1 (KRASG12C/SOS binding kit, HTRF); conditions: Em665/620, read-out: IC50, inhibitory activity on interaction of KRAS-G12C/SOS1
From the text: Experimental objective: The inhibitory effects of the tested compounds on KRAS-G12C/SOS1 were detected. IC50 was used to characterize the inhibitory ability of the compounds on the KRAS-G12C/SOS1. The lower IC50 value indicated the stronger inhibitory ability. BI-3406 was used as a positive control compound.
Experimental reagents: KRASG12C/SOS binding kit (Cisbio, cat. 63ADK000CB16PEG); DMSO (Sigma, cat. D8418-1L); and 384-well white plate (PerkinElmer, cat. 6007290)
• 1. Preparation of compounds: the test compounds were dissolved in 100% DMSO to obtain 10 mM stock solutions and the stock solutions were stored in a refrigerator in the dark. • 2. Kinase reaction process:
Preparation of compounds: the test compounds had the concentration of 5,000 nM and diluted in a 384-well plate into a 100% DMSO solution at the 200-fold final concentration, and the compounds were diluted 3-fold with 10 concentrations. 50 nL of the compounds at the 200-fold final concentration were transferred to the plate of interest, the 384-well plate, using a dispenser Echo 550. 50 nL of 100% DMSO was added to each negative control well and positive control well.
A Tag1-SOS1 solution at the 4-fold final concentration was prepared using a diluent buffer.
2.5 μL of the Tag1-SOS1 solution at the 4-fold final concentration was added to the 384-well plate.
A Tag2-KRAS-G12C solution at the 4-fold final concentration was prepared using the diluent buffer.
2.5 μL of the Tag2-KRAS-G12C solution at the 4-fold final concentration was respectively added into compound wells and the positive control wells; and 2.5 μL of the diluent buffer was added to the negative control wells.
The 384-well plate was centrifuged at 1,000 rpm for 30 seconds, shaken and mixed uniformly, and incubated at room temperature for 15 minutes.
An Anti-Tag1-TB3+ solution at the 1-fold final concentration and an Anti-Tag2-XL665 solution at the 1-fold final concentration were prepared using a detection buffer, the two solutions were mixed uniformly to obtain a Mix solution, and 5 μL of the Mix solution was added into each well.
The 384-well plate was centrifuged at 1,000 rpm for 30 seconds, shaken and mixed uniformly, and incubated at 4° C. for 120 minutes.
Em665/620 was read using an Envision microplate reader.
Inhibition %=(Max signal−Compound signal)/(Max signal−Min signal)×100 Calculation formula • wherein the Min signal was the mean value of the negative control wells, and the Max signal was the mean value of the positive control wells.
A dose-response curve was fitted using the log value of the concentration as an X axis and the percentage of the inhibitory rate as a Y axis by using the log(inhibitor) vs. response-variable slope of an analytical software GraphPadPrism5, thereby obtaining the IC50 value of each compound on an enzyme activity.

[2] = test system: p-ERK of PC-9 cells; assay: p-ERK HTRF assay in PC-9 cells; type: cell-based; conditions: PC-9 lung cancer cells, 1 hour treatment, read-out: IC50, inhibitory activity on p-ERK of PC-9 cells
Protocol: IC50 Values of Compounds Determined by p-ERK HTRF Assay in PC-9 Cells
Experimental objective: an inhibitory effect of the test compounds on the phosphorylation of PC-9ERK of lung cancer cells at a cellular level was evaluated by detecting the phosphorylation of ERK.
• PRMI 1640 medium (Invitrogen-11875093) • 0.25% pancreatin (Invitrogen-25200056) • Phosphoric acid buffer salt solution (PBS, pH 7.4) (Invitrogen-10010023) • Double-antibody (PS) (Invitrogen-15140122) • Fetal bovine serum (FBS) (Gibco-10091148) • Trypan blue (Gibco-15250061) • 10-cm culture dish (Corning-430167) • 10-mL pipette (Costar-4488) • Pipettor (Sartorius-17009031) • 15-mL centrifuge tube (Corning-430052) • 50-mL centrifuge tube (Corning-430829) • Cryotube (Thermo-377267) • 1.5-mL EP tube (Axygen-MCT-150-C-S) • Cell incubator (Thermo-371) • Microscope (Olympus-CKX41) • Centrifuge (Flying Pigeon-TDL-80-2B) • Cell counter (Countstar-IC-1000) • Envision (Perkin Elmer) • Spark 10M (TECAN) • Phospho-ERK1/2 (Thr202/Tyr204) Experimental kit (Cisbio, Cat. No. 64AERPEG) • PC-9 cells: RPMI1640+10% FBS+1% PS
• 1) PBS, 0.25% pancreatin, and a cell culture medium were placed in a water-bath kettle at 37° C. for preheating; • 2) cells were observed under a microscope, a fusion degree was evaluated, and no bacterial and fungi pollution was confirmed; • 3) a culture solution was removed, the cells were washed with 5 mL of PBS and digested with 2 mL of the 0.25% trypsin, the digestion was terminated with 10 mL of the fresh cell culture medium, a culture dish was rinsed, and the cells were transferred to a 15-mL centrifuge tube; • 4) the collected cells were centrifuged at 1,000 rpm for 5 minutes; • 5) after the centrifugation, the supernatant was discarded, the cells were resuspended in 5 mL of the cell culture medium, 20 μL of the resuspended cells were aspirated, and the number and viability of viable cells were recorded; • 6) the cell culture medium was used and the cell density was adjusted (PC-9:10,000 cells/well, and 45 μL per well); • 7) in a 384-well plate, 45 μL of a cell suspension per well was transferred according to an experimental design figure; and • 8) the cells were incubated overnight at 37° C. and 5% CO2.
• 1) The compounds were diluted from the stock concentration to 10 mM with 100% DMSO (Trametinib was diluted to 1 mM), then 3-fold diluted into 10 points (5 μL of the diluted compounds with the concentration of 10 mM were transferred to 10 μL of the DMSO in an LDV plate), and centrifuged at 1,000 rpm/min for 1 minute; • 2) 5 μL of the diluted compounds of step 1) were transferred to an inter plate 1 containing 45 μL of the cell culture medium (the compounds were diluted from 1,000× to 100×); • 3) 5 μL of the diluted compounds of step 2) were transferred to an inter plate 2 containing 45 μL of the cell culture medium (the compounds were diluted from 100× to 10×); • 4) 5 μL of the compounds were pipetted from the inter plate 2 into a cell culture plate (the compounds were diluted from 10 folds to 1 fold), the final concentrations of the test compounds were 10,000 nM, 3333.33 nM, 1111.11 nM, 370.37 nM, 123.46 nM, 41.15 nM, 13.72 nM, 4.57 nM, 1.52 nM, and […], the solution was centrifuged at 1,000 rpm/min for 1 minute, and the final content of the DMSO was 0.1%; and • 5) the cells were treated in an incubator at 37° C. for 1 hour. […]

KRAS-G12C/SOS1, sequence (Q07889 whole entry, stated change not applied): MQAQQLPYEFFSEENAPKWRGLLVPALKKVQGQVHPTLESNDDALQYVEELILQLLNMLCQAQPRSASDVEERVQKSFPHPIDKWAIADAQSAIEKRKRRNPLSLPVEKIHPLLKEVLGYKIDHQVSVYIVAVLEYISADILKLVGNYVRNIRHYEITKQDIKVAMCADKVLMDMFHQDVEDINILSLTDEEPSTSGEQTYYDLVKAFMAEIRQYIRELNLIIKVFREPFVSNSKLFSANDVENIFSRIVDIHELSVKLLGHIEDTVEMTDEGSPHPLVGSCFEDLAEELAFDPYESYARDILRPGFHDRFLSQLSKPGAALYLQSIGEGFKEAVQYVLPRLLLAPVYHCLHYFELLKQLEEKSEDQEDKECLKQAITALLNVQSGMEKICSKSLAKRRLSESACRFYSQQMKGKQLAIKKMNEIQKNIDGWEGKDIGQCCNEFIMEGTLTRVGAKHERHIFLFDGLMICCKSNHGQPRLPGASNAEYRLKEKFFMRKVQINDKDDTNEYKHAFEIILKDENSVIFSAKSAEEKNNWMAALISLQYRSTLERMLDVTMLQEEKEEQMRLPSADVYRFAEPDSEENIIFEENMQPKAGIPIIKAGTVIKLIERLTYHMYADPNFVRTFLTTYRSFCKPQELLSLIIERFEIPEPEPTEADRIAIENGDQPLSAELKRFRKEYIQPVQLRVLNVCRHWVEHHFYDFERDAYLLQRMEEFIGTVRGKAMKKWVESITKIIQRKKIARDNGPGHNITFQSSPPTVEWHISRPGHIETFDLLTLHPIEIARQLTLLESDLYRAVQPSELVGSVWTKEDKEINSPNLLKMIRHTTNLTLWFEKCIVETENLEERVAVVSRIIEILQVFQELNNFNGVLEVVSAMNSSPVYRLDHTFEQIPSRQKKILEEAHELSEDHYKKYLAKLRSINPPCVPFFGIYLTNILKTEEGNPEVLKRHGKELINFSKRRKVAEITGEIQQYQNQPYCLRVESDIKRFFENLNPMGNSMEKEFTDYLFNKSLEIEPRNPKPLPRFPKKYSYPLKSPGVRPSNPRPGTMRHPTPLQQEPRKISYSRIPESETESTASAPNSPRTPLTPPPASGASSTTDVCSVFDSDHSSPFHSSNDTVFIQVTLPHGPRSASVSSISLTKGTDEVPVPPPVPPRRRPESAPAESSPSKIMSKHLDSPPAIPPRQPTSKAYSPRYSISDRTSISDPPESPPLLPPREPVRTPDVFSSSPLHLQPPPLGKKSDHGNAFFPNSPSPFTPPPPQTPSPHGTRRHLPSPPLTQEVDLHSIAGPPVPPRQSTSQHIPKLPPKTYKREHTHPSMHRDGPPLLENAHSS

SMILES | IC50 [1] [µM] | IC50 ([2]; Homo sapiens, PC-9, 1 h) [µM] | IC50 [2] [µM]
C[C@@H](Nc1ccnc2cnc(C3(O)CCN(C(=O)N4CC[C@@H](O)C4)CC3)cc12)c1cccc(C(F)F)c1F [Compound B-162] | ≤ 0.1 | 0.3 to 1 | –
CNC(=O)C1(O)CCN(c2cc3c(N[C@H](C)c4cccc(C(F)F)c4F)ccnc3cn2)CC1 [Compound B-76] | ≤ 0.1 | ≤ 0.3 | –
C[C@H](O)C(=O)N1CCC(O)(c2cc3c(N[C@H](C)c4cccc(C(F)F)c4F)c(F)cnc3cn2)CC1 [Compound B-124] | ≤ 0.1 | ≤ 0.3 | –
CC(=O)N1CCN(c2cc3c(N[C@H](C)c4cccc(C(F)F)c4F)ccnc3cn2)[C@@H](CO)C1 [Compound B-45] | ≤ 0.1 | ≤ 0.3 | –
C[C@@H](Nc1ccnc2cnc(C3(O)CCC(O)CC3)cc12)c1cccc(C(C)(F)F)c1F (single isomer, unassigned) [Compound B-87-P1] | 0.1 to 0.5 | > 1 | –
CC(=O)N1CCN(c2cc3c(N[C@H](C)c4cccc(C(F)F)c4F)ccnc3c(C)n2)CC1 [Compound B-62] | ≤ 0.1 | ≤ 0.3 | –
C[C@@H](Nc1ccnc2cnc(C3CC3)cc12)c1cccc(C(F)F)c1F [Compound B-1] | ≤ 0.1 | 0.3 to 1 | –
C[C@@H](Nc1ccnc2cnc(C3(O)CCN(C(=O)CN4CCOCC4)CC3)cc12)c1cccc(C(F)F)c1F [Compound B-148] | ≤ 0.1 | ≤ 0.3 | –
C[C@@H](Nc1ccnc2cnc(N3CCC(O)CC3)cc12)c1cccc(C(F)F)c1F [Compound B-24] | ≤ 0.1 | ≤ 0.3 | –
COc1nc(C2(O)CCC(O)CC2)cc2c(N[C@H](C)c3cccc(C(F)F)c3F)ccnc12 (single isomer, unassigned) [Compound B-178-P2] | ≤ 0.1 | – | ≤ 0.3
C[C@@H](Nc1ccnc2cnc(C3(O)CCN(C(=O)NCCO)CC3)cc12)c1cccc(C(F)F)c1F [Compound B-163] | ≤ 0.1 | ≤ 0.3 | –
COC1(c2cc3c(N[C@H](C)c4cccc(C(F)F)c4F)ccnc3cn2)CCOCC1 [Compound B-104] | ≤ 0.1 | 0.3 to 1 | –
CC(=O)N1CCC(c2cc(F)c3nccc(N[C@H](C)c4cccc(C(F)F)c4F)c3c2)CC1 [Compound A-99] | ≤ 0.1 | ≤ 0.3 | –
C[C@@H](Nc1ccnc2cnc(C3(O)CCN(C(=O)C[C@@H]4CNCCO4)CC3)cc12)c1cccc(C(F)F)c1F [Compound B-142] | – | > 1 | –
C[C@@H](Nc1ccnc2cnc(C3(O)CCC(C(C)(C)O)CC3)cc12)c1cccc(C(F)(F)F)c1F (single isomer, unassigned) [Compound B-115-P2] | ≤ 0.1 | – | ≤ 0.3
CC(=O)N1CC=C(c2cc3c(N[C@H](C)c4cccc(C(F)F)c4F)ccnc3cn2)CC1 [Compound B-3] | ≤ 0.1 | ≤ 0.3 | –
COc1c(N2CCN(C(C)=O)CC2)cc2c(N[C@H](C)c3cccc(C(F)F)c3F)ccnc2c1F [Compound A-102] | ≤ 0.1 | ≤ 0.3 | –
C[C@@H](Nc1ccnc2cnc(C3(O)CCN(C(=O)CO)CC3)cc12)c1cccc(C#N)c1F [Compound B-167] | ≤ 0.1 | > 1 | –
C[C@@H](Nc1ccnc2cnc(C3(O)CCN(C(=O)C[C@H]4CNCCO4)CC3)cc12)c1cccc(C(F)F)c1F [Compound B-143] | – | > 1 | –
COc1nc(C2(O)CCN(C(=O)[C@H](C)O)CC2)cc2c(N[C@H](C)c3cccc(C(F)F)c3F)ccnc12 [Compound B-174] | 0.1 to 0.5 | 0.3 to 1 | –
C[C@@H](Nc1ccnc2cnc(C3(O)CCN(C(=O)[C@@H]4CCOC4)CC3)cc12)c1cccc(C(F)F)c1F [Compound B-133] | ≤ 0.1 | ≤ 0.3 | –
C[C@@H](Nc1ccnc2cnc(N3CCN(C(=O)C4CCOCC4)CC3)cc12)c1cccc(C(F)F)c1F [Compound B-27] | – | ≤ 0.3 | –
C[C@@H](Nc1ccnc2cnc(N3CCCS3(=O)=O)cc12)c1cccc(C#N)c1F [Compound B-166] | – | ≤ 0.3 | –
C[C@@H](Nc1ccnc2cnc(N3CCn4ccnc4C3)cc12)c1cccc(C(F)F)c1F [Compound B-29] | – | 0.3 to 1 | –
C[C@@H](O)C(=O)N1CCC(O)(c2cc3c(N[C@H](C)c4cccc(C(F)F)c4F)ccnc3cn2)CC1 [Compound B-120] | – | ≤ 0.3 | –
C[C@@H](Nc1ccnc2cnc(N3CCN(C(=O)C4COC4)CC3)cc12)c1cccc(C(F)F)c1F [Compound B-26] | – | ≤ 0.3 | –
C[C@@H](Nc1ccnc2cnc(N3CCn4nccc4C3)cc12)c1cccc(C(F)F)c1F [Compound B-28] | – | 0.3 to 1 | –
C[C@@H](Nc1ccnc2cnc(N3CCN(C(=O)C4CC4)CC3)cc12)c1cccc(C(F)F)c1F [Compound B-25] | – | ≤ 0.3 | –
C[C@@H](Nc1ccnc2cnc(N3CCn4cncc4C3)cc12)c1cccc(C(F)F)c1F [Compound B-30] | – | ≤ 0.3 | –
